Entries after “also recorded” stand apart in the source; their conditions may differ.
How the values were obtained:
[1] = system: interaction between fluorescein-labeled E. coli LPS and a CHO cell; test: Inhibition of the interaction between fluorescein (BODIPY)-labeled E. coli LPS and CHO cells, flow cytometry; assay type: cell-based, Chinese hamster; conditions: CHO cells, 7-AAD(−) living cells
Description: Boron dipyrromethene difluoride (BODIPY), a fluorescein, labeled E. coli LPS and CHO cells were used. BODIPY-labeled LPS was reacted with sodium glycocholate in a glass tube at 37° C. for 14 hours. 2×10^5 CHO cells mixed with the reacting solution were plated per well in a 96-well plate, and then incubated at 37° C. for 14 hours. The incubated solution was stained with 7-amino-actinomycin D (7-AAD) and then analyzed by a flow cytometer. The analysis was performed at least twice per each treatment group and the obtained data were statistically processed by t-test. The result was P<0.05 in comparison with the experimental group in which CHO cells were treated with only BODIPY-LPS.
7-AAD(−) cells were selected in order to analyze living cells. […] Therefore, it could be realized that Inflammatory inhibition efficacy of sodium glycocholate shown in the LPS-stimulated inflammatory response was due to the blocking of the interaction between LPS and cells by the action of sodium glycocholate.

NF-κB = test: Inhibition of E. coli LPS-stimulated NF-κB activation (CD25 expression) in 3FP CHO cells; assay type: cell-based, Chinese hamster; conditions: for nuclear transcription factor inhibition: LPS-stimulated 3FP cells, CD25 expression; for inhibition effect for LPS-stimulated CD25 expression (NF-κB activation): live 7AAD(−) LPS-stimulated 3FP cells
Description: In order to evaluate the inhibition efficacy for the activation of E. coli LPS-stimulated NF-κB in a CHO cell, % expression of CD 25 in the CHO cell was evaluated as the following method, and FACS analysis after staining with 7-AAD was carried out to evaluate the cytotoxicity. Bile salts were classified into 3 groups based on their solubility in different solvents, as follows:
The CHO cells expressing CD25 under the regulation of a nuclear factor (NF-κB) promoter, shown FIG. 2A, were used for this experiment. Toll-like receptor 2 (TLR2) and CD14 gene-transformed CHO cells (hereinafter referred to as “3FP cells”) were also used.
The next day, the cultured cells were treated with bile acid derivatives and LPS, and were incubated in a CO2 incubator for 15 hr at 37° C.
After stimulating the above incubated cells for 15 hr, the culture solution was centrifuged (1200 rpm, 5 min, 4° C.) to remove the culture supernatant. The precipitate was washed twice with 200 μl of FACS buffer (1×PBS containing 1% BSA and 1 mM EDTA). 20 μl of blocking solution (PBS containing 1:10 of normal mouse serum and 1:3 of anti-human CD14/CD32 (BD, 2.4G2) was added to each well and reacted on an ice for 30 min. A mixture solution of anti-human CD25-PE (1:16) and anti-human CD14-FITC (1:32) was added to the well and then reacted on the ice for 30 min. The reaction mixture was washed twice with 200 μl of FACS buffer, and then 200 μl of 7-AAD (1:20) was added to the reaction mixture. After the reaction mixture was reacted on the ice for 10 min, CD25 expression efficacy and cytotoxicity were analyzed by using a flow cytometer.
In order to analyze living cells, 7-AAD(−) cells were selected and an activation of nuclear transcription factor was confirmed by the increase of CD25 expression.

macrophages = test: Inhibition of LPS-induced nitric oxide generation, macrophages (Griess); assay type: cell-based, mouse; conditions: macrophages stimulated by LPS, 18 hours
Description: (§1) Then, the resulting dendritic cell mixtures were plated, by […] each, in a 96-well plate. Griss reagents were added to each well, and the 96-well plate was covered with foils and kept reacting for 15 min at room temperature. Absorbance at 540 nm was measured using an ELISA reader. Macrophages separated from abdomen were also treated with sodium glycocholate, sodium taurochenodeoxycholate and sodium taurodeoxycholate, respectively, and then stimulated with LPS for 18 hours. Thereafter, the same experiments as the dentritic cells were performed to the macrophages.

dendritic cells [2] = test: Inhibition of LPS-induced nitric oxide generation, dendritic cells (Griess); assay type: cell-based, mouse; conditions: dendritic cells stimulated by LPS, 18 hours
Description: as §1

[3] = system: LPS-administered C57BL/6 mice; test: Protection in LPS mouse model of sepsis (survival); assay type: in vivo, C57BL/6 mouse; conditions: for survival rate of the mice: 20 mg/kg LPS into abdomen
Description: In order to assay the neutralizing capacity of sodium glycocholate to LPS, three C57BL/6 mice of 6 weeks age were used per each group. 20 mg/kg and 10 mg/kg of LPS were administered into abdomen of the mouse in order to measure LD50 of LPS. It was observed that 20 mg/kg of LPS is the best optimal concentration for the test of protection test (FIG. 16).
The […] neutralizing capacity of sodium glycocholate to LPS was assayed. The survival rate was measured after 20 mg/kg of LPS was administered into the abdomen of mice and then 12.5 mg/kg of sodium glycocholate, and 20 mg/kg of LPS and 50 mg/kg of sodium glycocholate respectively was administered twice into the abdomen of mice, respectively.

[4] = system: LPS-administered C57BL/6 mouse; test: In vivo serum cytokines in LPS-administered mice (CBA kit)
Description: As described in Example 7, 20 mg/kg of LPS was administered into the abdomen of mice and then 12.5 mg/kg of sodium glycocholate, and 20 mg/kg of LPS and 50 mg/kg of sodium glycocholate respectively was administered twice into the abdomen of mice, respectively. At the predetermined time, blood was collected from mouse tail and then serum was obtained by centrifugation (2400×g, 10 min). The change of cytokine expression in the serum was measured by using cytometric bead array (CBA) kit.

dendritic cells [5] = test: Cytotoxicity to dendritic cells (7AAD, FACS); assay type: cell-based, mouse
Description: The cytotoxicity of sodium glycocholate to the CHO cells, dendritic cells, T cells which were used in the above Examples was assayed. FACS analysis was performed after staining with 7AAD. First, sodium glycocholate was kept in vitro for 1 hour at 37° C., and then mixed with cells. CHO cells or dendritic cells were incubated for 14 hours at 37° C., and T cells which were mixed with 14 hour-incubated dendritic cells, were incubated for 4 days. Then, each cell was stained with 7AAD and cell analysis were carried out by using a flow cytometer.

For `C[C@H](CCC(=O)NCC(=O)[O-])[C@H]1CC[C@H]2[C@@H]3[C@H](O)C[C@@H]4C[C@H](O)CC[C@]4(C)[C@H]3C[C@H](O)[C@]12C.[Na+]` [sodium glycocholate], the “interaction between BODIPY-LPS and the cell” value [1] was “inhibited according to the increase of the concentration”, the “nuclear transcription factor inhibition” value (NF-κB; 0.5 mg/ml) was 21.7±0.9% and the “nuclear transcription factor inhibition” value (NF-κB; 1 mg/ml) was 88.2±1.2%. The “inhibition effect for LPS-stimulated CD25 expression (NF-κB activation)” value (NF-κB) was “inhibited depending on the concentration”, the “inhibition effect for LPS-stimulated CD25 expression (NF-κB activation)” value (NF-κB; listed as sodium glycocholate hydrate) was “showed an inhibition effect” and the “generation of NO” value (macrophages) was “inhibited”. For the same compound, the “generation of NO” value (dendritic cells [2]) was “inhibited”, the “survival rate of the mice” value ([3]; 12.5 mg/kg administered twice (1 hour and 6 hours after LPS)) was 40% and the “survival rate of the mice” value ([3]; 50 mg/kg administered twice (1 hour and 6 hours after LPS)) was 60%. The mortality of mice ([3]; dose of 12.5 mg/kg mouse) was “significantly reduced”, the IL-10 in serum [4] was “significantly increased; also recorded: increase” and the IFN-g in serum ([4]; after 4, 8 and 12 hours) was “decrease”. For the same compound, the IL-12p70 in serum ([4]; after 4, 8 and 12 hours) was “decrease”, the IL-6 in serum ([4]; after 12, 24 and 48 hours) was “remarkably decreased; also recorded: decrease” and the MCP-1 in serum ([4]; after 12, 24 and 48 hours) was “remarkably decreased; also recorded: decrease”. The TNF-α in serum ([4]; after 12, 24 and 48 hours) was “remarkably decreased; also recorded: decrease”, the cytotoxicity (dendritic cells [5]; 1 mg/ml) was “no significant cytotoxicity; also recorded: dose not have cytotoxicity” and the “7AAD(+) increase compared with the negative control group” value (dendritic cells [5]; 14 hours) was 2-4%.
